Source: patent US20260242419A1, “A CYCLIC PEPTIDE FOR TRAPPING INTERLEUKIN-1 BETA” (Merck Sharp & Dohme LLC, priority 2023, published 2026)
Where two headings read alike, the source gives them in different places. Starred links: 1 amine or outer side, 2 acyl side, 3 side chain; linkers in the order of their positions; H or OH if unused. Non-standard residues stand in square brackets, D forms with d. Residues, ends and D or L forms follow the SMILES beside them. Phe(4-(5-CO2H-2-pyrimidyl)) = N[C@@H](Cc1ccc(-c2ncc(C(=O)O)cn2)cc1)C(=O)O; dPro(4R-(4-pyridylmethyl)) = O=C(O)[C@H]1C[C@@H](Cc2ccncc2)CN1; Trp(βS-Me,4-F) = C[C@@H](c1c[nH]c2cccc(F)c12)[C@H](N)C(=O)O; Bip(4'-COOH) = N[C@@H](Cc1ccc(-c2ccc(C(=O)O)cc2)cc1)C(=O)O; Ala(1-bicyclo(1.1.1)pentyl) = N[C@@H](CC12CC(C1)C2)C(=O)O; dPro(3S-(4-F-Bn)) = O=C(O)[C@@H]1NCC[C@@H]1Cc1ccc(F)cc1; X7 = Nc1cc(-c2ccc(C[C@H](N[*:1])C(=O)[*:2])cc2)ccn1; Ala(pyrimidin-5-yl) = N[C@@H](Cc1cncnc1)C(=O)O; Phe(4-COOH) = N[C@@H](Cc1ccc(C(=O)O)cc1)C(=O)O; Pro(cis-4-F) = O=C(O)[C@@H]1C[C@H](F)CN1; d(αMeD) = C[C@@](N)(CC(=O)O)C(=O)O; 4Pal = N[C@@H](Cc1ccncc1)C(=O)O; Dab = NCC[C@H](N)C(=O)O; Aib = CC(C)(N)C(=O)O

Biological target: T1, IL-1β (Homo sapiens, UniProt P01584)
T1 construct: purchased BioLegend 579404
T1 sequence (P01584 117-269): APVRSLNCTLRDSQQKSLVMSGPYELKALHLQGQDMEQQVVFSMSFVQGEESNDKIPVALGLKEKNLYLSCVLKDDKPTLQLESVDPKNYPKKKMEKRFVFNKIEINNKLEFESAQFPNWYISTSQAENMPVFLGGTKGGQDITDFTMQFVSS
Test: IL-6 assay in MRC5 cells: inhibition of IL-1β induced IL-6 secretion (AlphaLISA)
Format: cell-based
Conditions: inhibition of IL-1β induced IL-6 secretion in MRC5 cells, read-out: MRC5 IC50
Summary of the method: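 Compound was pre-incubated 1 h at ambient temperature with recombinant human IL-1β at 2λ EC80 before adding human lung fibroblast MRC5 cells (3000/well) in EMEM with 0.025% BSA. After overnight culture at 37 °C, 5% CO2, secreted IL-6 in conditioned medium was measured by AlphaLISA; IC50 from 4-parameter logistic fits.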

SMILES | IC50 | IC50 (compound pre-incubated 1 hour with recombinant human IL-1β)
C[C@@H](c1c[nH]c2cccc(F)c12)[C@@H]1NC(=O)[C@@H]2C[C@H](F)CN2C(=O)CNC(=O)[C@H](Cc2ccc(C(=O)O)cc2)NC(=O)[C@H](Cc2ccncc2)NC(=O)[C@H](Cc2ccc(-c3ccnc(N)c3)cc2)NC(=O)[C@H]2[C@@H](Cc3ccc(F)cc3)CCN2C(=O)CNC(=O)[C@H](CCN)NC(=O)[C@H](CCC(N)=O)NC(=O)[C@H](Cc2cncnc2)NC(=O)[C@@](C)(CC(=O)O)NC(=O)[C@H](Cc2c[nH]c3ccccc23)NC(=O)[C@H](CO)NC(=O)C(C)(C)NC1=O [Example 385] (cyclo([X7][4Pal][Phe(4-COOH)]G[Pro(cis-4-F)][Trp(βS-Me,4-F)][Aib]SW[d(αMeD)][Ala(pyrimidin-5-yl)]Q[Dab]G[dPro(3S-(4-F-Bn))])) | 0.023 nM | –
C[C@@H](c1c[nH]c2cccc(F)c12)[C@@H]1NC(=O)[C@@H]2C[C@H](F)CN2C(=O)CNC(=O)[C@H](Cc2ccc(C(=O)O)cc2)NC(=O)[C@H](Cc2ccncc2)NC(=O)[C@H](Cc2ccc(-c3ccc(C(=O)O)cc3)cc2)NC(=O)[C@H]2C[C@@H](Cc3ccncc3)CN2C(=O)CNC(=O)[C@H](CO)NC(=O)[C@H](CCC(N)=O)NC(=O)[C@H](Cc2cncnc2)NC(=O)[C@@](C)(CC(=O)O)NC(=O)[C@H](Cc2c[nH]c3ccccc23)NC(=O)[C@H](CO)NC(=O)C(C)(C)NC1=O [Example 156] (cyclo([Bip(4'-COOH)][4Pal][Phe(4-COOH)]G[Pro(cis-4-F)][Trp(βS-Me,4-F)][Aib]SW[d(αMeD)][Ala(pyrimidin-5-yl)]QSG[dPro(4R-(4-pyridylmethyl))])) | 0.015 nM | –
C[C@@H](c1c[nH]c2cccc(F)c12)[C@@H]1NC(=O)[C@@H]2C[C@H](F)CN2C(=O)CNC(=O)[C@H](Cc2ccc(C(=O)O)cc2)NC(=O)[C@H](Cc2ccncc2)NC(=O)[C@H](Cc2ccc(-c3ncc(C(=O)O)cn3)cc2)NC(=O)[C@H]2C[C@@H](Cc3ccncc3)CN2C(=O)CNC(=O)[C@H](CCN)NC(=O)[C@H](CCC(N)=O)NC(=O)[C@H](Cc2cncnc2)NC(=O)C(C)(C)NC(=O)[C@H](Cc2c[nH]c3ccccc23)NC(=O)[C@H](CO)NC(=O)C(C)(C)NC1=O [Example 186] (cyclo([Phe(4-(5-CO2H-2-pyrimidyl))][4Pal][Phe(4-COOH)]G[Pro(cis-4-F)][Trp(βS-Me,4-F)][Aib]SW[Aib][Ala(pyrimidin-5-yl)]Q[Dab]G[dPro(4R-(4-pyridylmethyl))])) | 0.015 nM | –

Other lines, results leading:

IC50 | IC50 (compound pre-incubated 1 hour with recombinant human IL-1β) | SMILES
0.026 nM | – | C[C@@H](c1c[nH]c2cccc(F)c12)[C@@H]1NC(=O)[C@@H]2C[C@H](F)CN2C(=O)CNC(=O)[C@H](Cc2ccc(C(=O)O)cc2)NC(=O)[C@H](CC23CC(C2)C3)NC(=O)[C@H](Cc2ccc(-c3ccc(C(=O)O)cc3)cc2)NC(=O)[C@H]2C[C@@H](Cc3ccncc3)CN2C(=O)CNC(=O)[C@H](CCN)NC(=O)[C@H](CCC(N)=O)NC(=O)[C@H](Cc2cncnc2)NC(=O)C(C)(C)NC(=O)[C@H](Cc2c[nH]c3ccccc23)NC(=O)[C@H](CCC(=O)O)NC(=O)C(C)(C)NC1=O [Example 43] (cyclo([Bip(4'-COOH)][Ala(1-bicyclo(1.1.1)pentyl)][Phe(4-COOH)]G[Pro(cis-4-F)][Trp(βS-Me,4-F)][Aib]EW[Aib][Ala(pyrimidin-5-yl)]Q[Dab]G[dPro(4R-(4-pyridylmethyl))]))
– | 0.011 nM | CO[C@H](C)[C@@H]1NC(=O)[C@@](C)(CC(=O)O)NC(=O)[C@H](Cc2c[nH]c3ccccc23)NC(=O)[C@H](CO)NC(=O)C(C)(C)NC(=O)[C@H]([C@@H](C)c2c[nH]c3cccc(F)c23)NC(=O)[C@@H]2C[C@H](F)CN2C(=O)CNC(=O)[C@H](Cc2ccc(C(=O)O)cc2)NC(=O)[C@H](Cc2ccncc2)NC(=O)[C@H](Cc2ccc(-c3ccc(C(=O)O)cc3)cc2)NC(=O)[C@H]2C[C@@H](Cc3ccncc3)CN2C(=O)CNC(=O)[C@H](CCN)NC(=O)[C@H](CCC(N)=O)NC1=O [Example 255] (cyclo([Bip(4'-COOH)][4Pal][Phe(4-COOH)]G[Pro(cis-4-F)][Trp(βS-Me,4-F)][Aib]SW[d(αMeD)]T(Me)Q[Dab]G[dPro(4R-(4-pyridylmethyl))]))
